ChEMBL document CHEMBL6134905, “Double Swords in One: Novel Selective PI3K/110β PROTAC Degraders for the Treatment of Multidrug-Resistant Cancer by Activating ERS and Inhibiting P-gp” (J Med Chem, 2025)
Activity calls are given as the source filed them. The rule behind the calls is not given here.

Assays:
MCF7/ADM [1] = assay: Antitumor activity against human MCF7/ADM cells xenografted in BALB/c mouse assessed as downregulation of p110alpha level in tumor at 50 mg/kg, ip; assay type: functional, organism-based
[2] = target: T1, von Hippel-Lindau disease tumor suppressor/Phosphatidylinositol 4,5-bisphosphate 3-kinase catalytic subunit beta isoform (Homo sapiens, UniProt P42338+P40337); assay: PROTAC activity at PI3K-p110beta/VHL in human A549/DDP cells assessed as reduction in PI3K-p110beta level by Western blot analysis; assay type: cell-based; details: time <= 48.0 hrs
T1 sequence (P40337 whole entry, looked up, canonical isoform): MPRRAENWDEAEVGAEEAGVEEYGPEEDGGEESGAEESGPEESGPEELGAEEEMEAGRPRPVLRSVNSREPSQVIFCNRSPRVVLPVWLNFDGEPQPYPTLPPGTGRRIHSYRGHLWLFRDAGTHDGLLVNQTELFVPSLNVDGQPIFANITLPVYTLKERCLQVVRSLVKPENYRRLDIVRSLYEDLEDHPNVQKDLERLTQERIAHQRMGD
T1 sequence (P42338 whole entry, looked up, canonical isoform): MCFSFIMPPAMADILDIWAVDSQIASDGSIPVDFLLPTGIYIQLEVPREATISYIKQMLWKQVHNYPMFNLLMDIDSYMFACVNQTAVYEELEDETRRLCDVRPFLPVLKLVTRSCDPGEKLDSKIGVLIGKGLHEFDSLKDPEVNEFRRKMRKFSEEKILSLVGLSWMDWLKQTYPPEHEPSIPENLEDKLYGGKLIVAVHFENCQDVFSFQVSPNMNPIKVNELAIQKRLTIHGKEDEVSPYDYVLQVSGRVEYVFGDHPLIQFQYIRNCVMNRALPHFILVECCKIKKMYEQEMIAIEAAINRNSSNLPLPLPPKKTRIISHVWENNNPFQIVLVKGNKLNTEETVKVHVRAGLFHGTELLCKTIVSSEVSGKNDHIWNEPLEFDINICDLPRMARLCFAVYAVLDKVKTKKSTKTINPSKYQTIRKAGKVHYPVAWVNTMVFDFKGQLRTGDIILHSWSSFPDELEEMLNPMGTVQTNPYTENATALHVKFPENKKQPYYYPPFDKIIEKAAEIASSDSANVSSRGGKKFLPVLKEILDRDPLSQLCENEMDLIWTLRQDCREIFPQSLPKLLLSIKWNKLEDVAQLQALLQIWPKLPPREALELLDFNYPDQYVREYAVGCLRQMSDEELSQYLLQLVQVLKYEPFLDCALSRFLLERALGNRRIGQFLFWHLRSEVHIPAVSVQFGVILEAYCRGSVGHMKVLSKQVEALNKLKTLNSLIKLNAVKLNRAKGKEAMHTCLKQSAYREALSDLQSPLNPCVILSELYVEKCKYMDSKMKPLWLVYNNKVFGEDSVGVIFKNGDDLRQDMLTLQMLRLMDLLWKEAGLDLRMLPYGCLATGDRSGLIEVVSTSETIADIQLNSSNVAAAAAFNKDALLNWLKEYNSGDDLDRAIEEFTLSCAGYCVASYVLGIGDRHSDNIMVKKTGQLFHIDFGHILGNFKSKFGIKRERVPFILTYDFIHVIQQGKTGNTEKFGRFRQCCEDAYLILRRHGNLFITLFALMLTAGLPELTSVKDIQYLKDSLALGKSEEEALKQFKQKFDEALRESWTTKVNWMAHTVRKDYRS

MCF7/ADM [3] = assay: Antitumor activity against human MCF7/ADM cells xenografted in BALB/c mouse assessed as decrease in cleaved caspase-8 expression in tumor at 50 mg/kg, ip by Western blot analysis; assay type: functional, organism-based
[4] = target: T2, ATP-dependent translocase ABCB1 (Homo sapiens, UniProt P08183); assay: Inhibition of P-gp in human MCF7/ADM cells assessed as increase in intracellular Rh123 accumulation at 6.25 to 25 uM incubated for 24 hrs by flow cytometry analysis; assay type: cell-based; details: dose 6.25-25 µM
T2 sequence (P08183 whole entry): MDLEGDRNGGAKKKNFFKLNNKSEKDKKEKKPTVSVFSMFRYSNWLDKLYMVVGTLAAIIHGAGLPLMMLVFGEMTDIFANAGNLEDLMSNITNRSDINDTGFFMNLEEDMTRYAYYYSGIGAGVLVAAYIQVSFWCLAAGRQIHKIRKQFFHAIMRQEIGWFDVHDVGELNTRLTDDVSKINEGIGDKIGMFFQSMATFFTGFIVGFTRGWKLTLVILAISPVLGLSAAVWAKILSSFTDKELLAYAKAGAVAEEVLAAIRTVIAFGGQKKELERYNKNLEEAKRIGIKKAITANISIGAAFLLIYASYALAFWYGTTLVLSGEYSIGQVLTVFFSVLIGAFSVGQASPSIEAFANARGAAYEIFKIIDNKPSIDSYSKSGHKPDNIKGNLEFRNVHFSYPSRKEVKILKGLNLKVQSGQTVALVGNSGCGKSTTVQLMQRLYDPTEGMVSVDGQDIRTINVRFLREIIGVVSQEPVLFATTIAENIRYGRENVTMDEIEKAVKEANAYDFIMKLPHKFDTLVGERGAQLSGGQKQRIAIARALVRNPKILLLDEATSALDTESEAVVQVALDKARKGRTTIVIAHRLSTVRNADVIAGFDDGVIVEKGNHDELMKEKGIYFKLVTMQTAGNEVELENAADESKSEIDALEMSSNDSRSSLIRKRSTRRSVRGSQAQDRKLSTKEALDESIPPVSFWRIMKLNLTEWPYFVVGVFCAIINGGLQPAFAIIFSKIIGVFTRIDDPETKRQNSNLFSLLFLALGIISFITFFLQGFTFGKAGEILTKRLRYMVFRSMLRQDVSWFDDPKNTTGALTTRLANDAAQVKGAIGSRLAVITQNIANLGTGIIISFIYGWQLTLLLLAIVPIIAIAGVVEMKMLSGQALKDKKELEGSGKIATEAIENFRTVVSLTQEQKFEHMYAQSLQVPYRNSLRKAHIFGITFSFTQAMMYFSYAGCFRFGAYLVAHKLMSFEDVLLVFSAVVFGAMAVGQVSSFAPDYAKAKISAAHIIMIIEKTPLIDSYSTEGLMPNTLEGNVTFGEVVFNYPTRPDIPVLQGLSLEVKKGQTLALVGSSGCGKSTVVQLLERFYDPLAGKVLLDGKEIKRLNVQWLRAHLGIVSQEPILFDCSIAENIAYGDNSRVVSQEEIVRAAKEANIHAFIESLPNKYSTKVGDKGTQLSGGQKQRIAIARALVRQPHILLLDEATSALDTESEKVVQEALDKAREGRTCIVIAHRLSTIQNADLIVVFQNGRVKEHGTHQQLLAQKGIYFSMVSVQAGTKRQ

[5] = Toxicity in BALB/c mouse xenografted with human MCF7/ADM cells assessed as change in HGB level at 50 mg/kg, ip; assay type: organism-based; details: in vivo
[6] = target: T1, von Hippel-Lindau disease tumor suppressor/Phosphatidylinositol 4,5-bisphosphate 3-kinase catalytic subunit beta isoform; assay: PROTAC activity at PI3K-p110beta/VHL in human MCF7/ADM cells assessed as reduction in PI3K-p110beta level incubated for 12 to 36 hrs by Western blot analysis; assay type: cell-based; details: time 12-36 hrs
[7] = target: T2, ATP-dependent translocase ABCB1; assay: Inhibition of P-gp in human MCF7/ADM cells assessed as increase in intracellular adriamycin accumulation at 6.25 to 25 uM incubated for 24 hrs by flow cytometry analysis; assay type: cell-based; details: dose 6.25-25 µM
[8] = Toxicity in BALB/c mouse xenografted with human MCF7/ADM cells assessed as lung damage at 50 mg/kg, ip by H and E staining based analysis; assay type: organism-based; details: in vivo
[9] = target: T1, von Hippel-Lindau disease tumor suppressor/Phosphatidylinositol 4,5-bisphosphate 3-kinase catalytic subunit beta isoform; assay: PROTAC activity at PI3K-p110beta/VHL in human MCF7/ADM cells assessed as reduction in PI3K-p110beta level by Western blot analysis; assay type: cell-based; details: time <= 48.0 hrs
MCF7/ADM [10] = assay: Upregulation of ATF4 expression in human MCF7/ADM cells at 0.25 to 25 uM incubated for 24 hrs by Western blot analysis; assay type: functional, cell-based; details: dose 0.25-25 µM
MCF7/ADM [11] = assay: Upregulation of CHOP expression in human MCF7/ADM cells at 0.25 to 25 uM incubated for 24 hrs by Western blot analysis; assay type: functional, cell-based; details: dose 0.25-25 µM
[12] = target: T1, von Hippel-Lindau disease tumor suppressor/Phosphatidylinositol 4,5-bisphosphate 3-kinase catalytic subunit beta isoform; assay: PROTAC activity at PI3K-p110beta/VHL in human MCF7/ADM cells assessed as reduction in PI3K-p110beta level incubated for 2 hrs by Western blot analysis; assay type: cell-based
A549/CDDP [13] = assay: Induction of ROS level in human A549/DDP cells at 25 uM measured for 24 hrs by MitoSOX staining based analysis; assay type: functional, cell-based
[14] = Toxicity in BALB/c mouse xenografted with human MCF7/ADM cells assessed as tumor damage at 50 mg/kg, ip by H and E staining based analysis; assay type: organism-based; details: in vivo
[15] = target: T1, von Hippel-Lindau disease tumor suppressor/Phosphatidylinositol 4,5-bisphosphate 3-kinase catalytic subunit beta isoform; assay: PROTAC activity at PI3K-p110beta/VHL in human A549/DDP cells assessed as induction of PI3K-p110beta degradation incubated for 24 hrs by Western blot analysis; assay type: cell-based; details: dose 0.04-50 µM
A549/CDDP [16] = assay: Upregulation of PERK expression in human A549/DDP cells at 0.25 to 25 uM incubated for 24 hrs by Western blot analysis; assay type: functional, cell-based; details: dose 0.25-25 µM
MCF7/ADM [17] = assay: Antitumor activity against human MCF7/ADM cells xenografted in BALB/c mouse assessed as increase in CHOP expression in tumor at 50 mg/kg, ip by Western blot analysis; assay type: functional, organism-based
MCF7/ADM [18] = assay: Induction of ROS level in human MCF7/ADM cells at 25 uM measured for 24 hrs by MitoSOX staining based analysis; assay type: functional, cell-based
MCF7/ADM [19] = assay: Antitumor activity against human MCF7/ADM cells xenografted in BALB/c mouse assessed as increase in cleaved caspase-9 expression in tumor at 50 mg/kg, ip by Western blot analysis; assay type: functional, organism-based
MCF7/ADM [20] = assay: Induction of oxidative stress in human MCF7/ADM cells at 25 uM measured for 24 hrs; assay type: functional, cell-based
MCF7 = assay: Antitumor activity against human MCF7 cells assessed as cell viability incubated for 24 hrs by MTT assay; assay type: functional, cell-based; details: MCF7, 24 h
[21] = target: T1, von Hippel-Lindau disease tumor suppressor/Phosphatidylinositol 4,5-bisphosphate 3-kinase catalytic subunit beta isoform; assay: PROTAC activity at PI3K-p110beta/VHL in human MCF7/ADM cells assessed as reduction in PI3K-p110beta level at 25 uM measured for 24 hrs by Western blot analysis; assay type: cell-based
[22] = Toxicity in BALB/c mouse xenografted with human MCF7/ADM cells assessed as spleen damage at 50 mg/kg, ip by H and E staining based analysis; assay type: organism-based; details: in vivo
[23] = target: T1, von Hippel-Lindau disease tumor suppressor/Phosphatidylinositol 4,5-bisphosphate 3-kinase catalytic subunit beta isoform; assay: PROTAC activity at PI3K-p110beta/VHL in human A549/DDP cells assessed as reduction in PI3K-p110beta level at 25 uM measured for 24 hrs by Western blot analysis; assay type: cell-based
MCF7/ADM [24] = assay: Upregulation of p-IRE1 expression in human MCF7/ADM cells at 0.25 to 25 uM incubated for 24 hrs by Western blot analysis; assay type: functional, cell-based; details: dose 0.25-25 µM
[25] = Toxicity in BALB/c mouse xenografted with human MCF7/ADM cells assessed as change in AST level at 50 mg/kg, ip; assay type: organism-based; details: in vivo
A549/CDDP [26] = assay: Induction of apoptosis in human A549/DDP cells assessed as increase in cleaved caspase-8 expression at 12.5 uM incubated for 24 hrs by Western blot analysis; assay type: functional, cell-based
A549/CDDP [27] = assay: Activation of unfolded protein response in human A549/DDP cells at 25 uM incubated for 24 hrs by PROTEOSTATR aggresome dye based fluorescent microscopy; assay type: functional, cell-based
MCF7/ADM [28] = assay: Downregulation of p-gp level in human MCF7/ADM cells at 6.25 to 25 uM incubated for 24 hrs; assay type: functional, cell-based; details: dose 6.25-25 µM
[29] = target: T1, von Hippel-Lindau disease tumor suppressor/Phosphatidylinositol 4,5-bisphosphate 3-kinase catalytic subunit beta isoform; assay: PROTAC activity at PI3K-p110beta/VHL in human A549/DDP cells assessed as induction of PI3K-p110beta degradation at 0.04 to 50 uM by Western blot analysis; assay type: cell-based; details: dose 0.04-50 µM, time 24.0 hrs
Mitochondrial membrane = assay: Induction of mitochondrial membrane potential loss in human MCF7/ADM cells assessed as increase in green fluorescence at 25 uM incubated for 48 hrs by JC-1 staining based flow cytometry
A549/CDDP [30] = assay: Induction of apoptosis in human A549/DDP cells assessed as increase in caspase-8 expression at 12.5 uM incubated for 24 hrs by Western blot analysis; assay type: functional, cell-based
MCF7/ADM [31] = assay: Induction of apoptosis in human MCF7/ADM cells assessed as increase in cleaved caspase-3 expression at 12.5 uM incubated for 24 hrs by Western blot analysis; assay type: functional, cell-based
[32] = Toxicity in BALB/c mouse xenografted with human MCF7/ADM cells assessed as heart damage at 50 mg/kg, ip by H and E staining based analysis; assay type: organism-based; details: in vivo
MCF7/ADM [33] = assay: Induction of apoptosis in human MCF7/ADM cells assessed as increase in cleaved caspase-8 expression at 12.5 uM incubated for 24 hrs by Western blot analysis; assay type: functional, cell-based
MCF7/ADM [34] = assay: Induction of apoptosis in human MCF7/ADM cells assessed as increase in caspase-8 expression at 12.5 uM incubated for 24 hrs by Western blot analysis; assay type: functional, cell-based

| SMILES | Activity (MCF7/ADM [1]) | Activity [2] | Activity (MCF7/ADM [3]) | inhibition (INH) [4] | Activity [5] | Activity [6] | inhibition (INH) [7] | Activity [8] | Activity [9] | Activity (MCF7/ADM [10]) | Activity (MCF7/ADM [11]) | Activity [12] | Activity (A549/CDDP [13]) | Activity [14] | Activity [15] | Activity (A549/CDDP [16]) | Activity (MCF7/ADM [17]) | Activity (MCF7/ADM [18]) | Activity (MCF7/ADM [19]) | Activity (MCF7/ADM [20]) | also measured |
| --- | --- | --- | --- | --- | --- | --- | --- | --- | --- | --- | --- | --- | --- | --- | --- | --- | --- | --- | --- | --- | --- |
| Cc1cc(C(C)Nc2ccccc2C(=O)NCCCCCCC(=O)N[C@H](C(=O)N2C[C@H](O)C[C@H]2C(=O)NCc2ccc(-c3scnc3C)cc2)C(C)(C)C)c2nc(N3CCOCC3)cc(=O)n2c1 (some centres not stated) | Active | Time-dependent-effect | Active | Active | Non-toxic | Active | Active | Non-toxic | Time-dependent-effect | Active | Active | Active | Active | Non-toxic | Dose-dependent-effect | Active | Active | Active | Active | Active | IC50 (MCF7): 54 µM; Activity [21]: Active; Activity [22]: Non-toxic; Activity [23]: Active; Activity (MCF7/ADM [24]): Active; Activity [25]: Non-toxic; Activity (A549/CDDP [26]): Active; Activity (A549/CDDP [27]): Active; Activity (MCF7/ADM [28]): Active; Activity [29]: Time-dependent-effect; Activity (Mitochondrial membrane): Active; Activity (A549/CDDP [30]): Active; Activity (MCF7/ADM [31]): Active; Activity [32]: Non-toxic; Activity (MCF7/ADM [33]): Active; Activity (MCF7/ADM [34]): Active |
| Cc1cc(C(C)Nc2ccccc2C(=O)NCCOCCOCCC(=O)N[C@H](C(=O)N2C[C@H](O)C[C@H]2C(=O)NCc2ccc(-c3scnc3C)cc2)C(C)(C)C)c2nc(N3CCOCC3)cc(=O)n2c1 (some centres not stated) | Active | Time-dependent-effect | Active | Active | Non-toxic | Active | Active | Non-toxic | Time-dependent-effect | Active | Active | Active | Active | Non-toxic | Dose-dependent-effect | Active | Active | Active | Active | Active | IC50 (MCF7): 33.9 µM; Activity [21]: Active; Activity [22]: Non-toxic; Activity [23]: Active; Activity (MCF7/ADM [24]): Active; Activity [25]: Non-toxic; Activity (A549/CDDP [26]): Active; Activity (A549/CDDP [27]): Active; Activity (MCF7/ADM [28]): Active; Activity [29]: Time-dependent-effect; Activity (Mitochondrial membrane): Active; Activity (A549/CDDP [30]): Active; Activity (MCF7/ADM [31]): Active; Activity [32]: Non-toxic; Activity (MCF7/ADM [33]): Active; Activity (MCF7/ADM [34]): Active |
